Type in all cases: biochemical
Experiment [1] has as its target T1, HIV-1 protease (wild-type, WT) (Human immunodeficiency virus type 1 group M subtype B, UniProt P04585).
T1 construct: purified HIV-1 protease (wild-type, WT)
In words: Inhibition of purified wild-type HIV-1 protease (fluorogenic substrate cleavage), Ki and % inhibition. The procedure:
(§1) The inhibition constants (Ki) for the compounds of the above examples were determined using purified HIV-1 protease (wild-type, WT) (Tables I, II, IV and V) and R8Q and V82I mutant HIV-1 proteases (Table III). Ki is an inhibition constant of a given compound as derived by enzyme kinetics. A low Ki represents a high affinity of the compound for the enzyme, i.e., tight binding or low dissociation. Inhibition of the cleavage was assayed using a fluorogenic substrate available from Molecular Probes, Inc., Eugene, Oreg., and described in Kageyama et al., Antimicrob. Agents. Chemother., 37, 272 (1993), and a fluorogenic substrate available from Bachem California, Torrance, Calif., and described in Kageyama et al. (1993), supra. The inhibitory potencies of these compounds are set forth in Tables I-V. Percent inhibition is the percentage inhibition of an enzyme's activity by a given compound at a given concentration.

For experiment [2], the target named is T2, R8Q mutant HIV-1 protease (Human immunodeficiency virus type 1 group M subtype B, UniProt P04585, R496Q).
T2 construct: R8Q and V82I mutant HIV-1 proteases
Description: Inhibition of R8Q mutant HIV-1 protease (fluorogenic substrate cleavage). The following applies: Table III. The procedure:
as §1

In experiment [3] the target is T3, V82I mutant HIV-1 protease (Human immunodeficiency virus type 1 group M subtype B, UniProt P04585, V570I).
T3 construct: R8Q and V82I mutant HIV-1 proteases
In words: Inhibition of V82I mutant HIV-1 protease (fluorogenic substrate cleavage). The settings on record: Table III. The procedure:
as §1

[4] abbreviates: Table III, wild-type HIV protease, read-out: Ki WT.
Setting [5] is: Table V, spread wrapped on the next line: DN-1 ± 0.6, DN-4 ± 0.09, DN-5 ± 1.3, DN-6B ± 0.3, DN-10 ± 0.007, DN-11 ± 0.1, read-out: Ki.

37 molecules from patent US6066656A, “2,5-diamino-3,4-disubstituted-1,6-diphenylhexane isosteres comprising benzamide, sulfonamide and anthranilamide subunits and methods of using same” (The United States of America as represented by the …, priority 1998, dated 2000) can be followed below.

Read-outs that look alike come from different tables or passages of the source.

Take `O=C(NC(Cc1ccccc1)C(O)C(O)C(Cc1ccccc1)NC(=O)c1cccc(O)c1)c1cccc(O)c1` (centres unmarked) [Compound 9]: the Ki in experiment [1] (Table II, read-out: Ki) amounted to 43 nM. As for `O=C(Cc1ccccc1O)N[C@@H](Cc1ccccc1)[C@H](O)[C@H](O)[C@H](Cc1ccccc1)NC(=O)Cc1ccccc1O` [Compound 5b], the “inhibition of HIV PR (in words)” value in experiment [1] is given as “small improvements in inhibition of HIV PR”. Further, the inhibition at 10 µM in experiment [1] (read-out: % inhib) amounted to 66%. With `O=C(N[C@@H](Cc1ccccc1)[C@H](O)[C@H](O)[C@H](Cc1ccccc1)NC(=O)c1ccc(O)c(O)c1)c1ccc(O)c(O)c1` [Compound 12], the Ki in experiment [1] (Table II, unit nm [sic], read-out: Ki) was found to be 80 nM; in experiment [1] (setting [4]), 80 nM; in experiment [2], 40 nM; in experiment [3] it was 235 nM. On to `O=C(N[C@@H](Cc1ccccc1)[C@H](O)[C@H](O)[C@H](Cc1ccccc1)NC(=O)c1cccc(O)c1)c1cccc(O)c1` [Compound 7, (2S,3R,4S,5S)-2,5-bis[((3-hydroxyphenyl)carbonyl)amino]-3,4-dihydroxy-1,6-diphenyl-hexane], for which, in experiment [1], the “inhibition of HIV PR (in words)” value was “potent inhibitors of HIV PR”. Moreover, the Ki came out at 22 nM in experiment [1] (Table II, read-out: Ki); 22 nM in experiment [1] (setting [4]); 22 nM in experiment [1] (read-out: Ki); 36 nM in experiment [2]; 51 nM in experiment [3]. In experiment [1] (in general, R,S core compared with R,R core), the “relative potency, R,S vs R,R diol core (compounds 7 and 8)” value was “three times more potent”.

For the molecule `O=C(N[C@@H](Cc1ccccc1)C[C@H](O)[C@H](Cc1ccccc1)NC(=O)c1cccc(O)c1)c1cccc(O)c1` [Compound 24], the “inhibition of HIV PR (in words)” value in experiment [1] is “did not improve the inhibitory potencies”. Besides, the inhibition constant (Ki) in experiment [1] (Table II, read-out: Ki) worked out at 25 nM; in experiment [1] (setting [4]) it was 25 nM; in experiment [2] it was 34 nM; in experiment [3], 96 nM. Turning to `O=C(N[C@@H](Cc1ccccc1)[C@H](O)[C@H](O)[C@H](Cc1ccccc1)NC(=O)c1cccc([N+](=O)[O-])c1)c1cccc([N+](=O)[O-])c1` [Compound 22], the inhibition at 10 µM in experiment [1] (read-out: % inhib) was found to be 40%. In the case of `O=C(Nc1c(O)cccc1C(=O)N[C@@H](Cc1ccccc1)[C@H](O)[C@H](O)[C@H](Cc1ccccc1)NC(=O)c1cccc(O)c1NC(=O)OCc1ccccc1)OCc1ccccc1` [Compound 33], the Ki in experiment [1] (Table IV, read-out: Ki) came to 20 nM. For the molecule `O=C(N[C@@H](Cc1ccccc1)[C@H](O)[C@H](O)[C@H](Cc1ccccc1)NC(=O)c1cc(O)cc(O)c1)c1cc(O)cc(O)c1` [Compound 13], the Ki in experiment [1] (Table II, read-out: Ki) came out at 700 nM.

On to `CC(=O)Nc1ccccc1C(=O)N[C@@H](Cc1ccccc1)[C@H](O)[C@H](O)[C@H](Cc1ccccc1)NC(=O)c1ccccc1NC(C)=O` [Compound 26], for which the inhibition constant Ki amounted to 41 nM in experiment [1] (Table IV, read-out: Ki) and 41 nM in experiment [1] (read-out: Ki). With `Cc1ccc(C(=O)N[C@@H](Cc2ccccc2)[C@H](O)[C@H](O)[C@H](Cc2ccccc2)NC(=O)c2ccc(C)c(O)c2)cc1O` [Compound 16], the Ki in experiment [1] (Table II, read-out: Ki) was 132 nM. With `CC(C)(C)OC(=O)Nc1ccc(C(=O)N[C@@H](Cc2ccccc2)[C@@H](O)[C@@H](O)[C@H](Cc2ccccc2)NC(=O)OCc2ccccc2)cc1` [DN-5], the Ki in experiment [1] (setting [5]) was found to be 15.8 nM. On to `CC(C)(C)OC(=O)N[C@@H](Cc1ccccc1)[C@@H](O)[C@@H](O)[C@H](Cc1ccccc1)NC(=O)OCc1ccccc1` [DN-10], for which, in experiment [1] (setting [5]), the inhibition constant Ki amounted to 3.09 nM. `O=C(N[C@@H](Cc1ccccc1)[C@@H](O)[C@H](O)[C@H](Cc1ccccc1)NC(=O)c1ccc(O)cc1)c1ccc(O)cc1` [Compound 10]: the Ki in experiment [1] (Table II, read-out: Ki) was 330 nM; in experiment [1] (read-out: Ki) it was 330 nM. Turning to `Cc1cccc(C(=O)N[C@@H](Cc2ccccc2)[C@H](O)[C@H](O)[C@H](Cc2ccccc2)NC(=O)c2cccc(C)c2NC(=O)OCc2ccccc2)c1NC(=O)OCc1ccccc1` [Compound 31], in experiment [1] (Table IV, read-out: Ki), the Ki was 12 nM. For `CCOC(=O)Nc1ccccc1C(=O)N[C@@H](Cc1ccccc1)[C@H](O)[C@H](O)[C@H](Cc1ccccc1)NC(=O)c1ccccc1NC(=O)OCC` [Compound 28], the inhibition at 10 µM in experiment [1] (Table IV, @ 10 μM, read-out: % inhibition) is 41%. Consider `O=C(Cc1cccc(O)c1)N[C@@H](Cc1ccccc1)[C@H](O)[C@H](O)[C@H](Cc1ccccc1)NC(=O)Cc1cccc(O)c1` [Compound 5a], for which the “inhibition of HIV PR (in words)” value in experiment [1] is “small improvements in inhibition of HIV PR”. Further, the Ki in experiment [1] (Table I, read-out: Ki) amounted to 3000 nM. Regarding `O=C(CO)Nc1ccccc1C(=O)N[C@@H](Cc1ccccc1)[C@H](O)[C@H](O)[C@H](Cc1ccccc1)NC(=O)c1ccccc1NC(=O)CO` [Compound 29], in experiment [1] (Table IV, read-out: Ki), the Ki amounted to 41 nM. `O=C(N[C@@H](Cc1ccccc1)[C@H](O)[C@H](O)[C@H](Cc1ccccc1)NC(=O)c1cccc(O)c1)OCc1ccccc1` [DN-1]: the inhibitory constant (Ki) in experiment [1] (setting [5]) was 11.9 nM. As to `O=C(Nc1c(Cl)cccc1C(=O)N[C@@H](Cc1ccccc1)[C@H](O)[C@H](O)[C@H](Cc1ccccc1)NC(=O)c1cccc(Cl)c1NC(=O)OCc1ccccc1)OCc1ccccc1` [Compound 32], the inhibition constant Ki in experiment [1] (Table IV, read-out: Ki) amounted to 91 nM. For `CC(C)(C)OC(=O)Nc1ccc(C(=O)N[C@@H](Cc2ccccc2)[C@@H](O)[C@@H](O)[C@H](Cc2ccccc2)NC(=O)c2ccccc2NC(=O)OCc2ccccn2)cc1` [DN-6], the inhibition at 1 µM in experiment [1] (Table V, @ 1 μM, read-out: % inhibition (printed after % Inhib. Conc.)) stood at 15%. For the same molecule, the “% Inhib. Conc.” value in experiment [1] (Table V, @ 10 NM (so in the source)) worked out at 40%.

As to `COCCOCCOc1cccc(C(=O)N[C@@H](Cc2ccccc2)[C@H](O)[C@H](O)[C@H](Cc2ccccc2)NC(=O)c2cccc(OCCOCCOC)c2)c1` [Compound 18], in experiment [1] (read-out: % inhib), the inhibition at 10 µM was 63%. With `O=C(Nc1ccccc1C(=O)N[C@@H](Cc1ccccc1)[C@@H](O)[C@@H](O)[C@H](Cc1ccccc1)NC(=O)c1cccc(O)c1)OCc1ccccn1` [ND-4], the Ki in experiment [1] (setting [5]) was 0.7 nM. In the case of `Cc1ccc(O)cc1C(=O)N[C@@H](Cc1ccccc1)[C@H](O)[C@H](O)[C@H](Cc1ccccc1)NC(=O)c1cc(O)ccc1C` [Compound 15], the inhibitory constant (Ki) in experiment [1] (Table II, read-out: Ki) turned out to be 75 nM; in experiment [1] (setting [4]), 75 nM; in experiment [1] (read-out: Ki), 75 nM; in experiment [2] it was 89 nM; in experiment [3], 54 nM. Consider `O=C(N[C@@H](Cc1ccccc1)[C@@H](O)[C@H](O)[C@H](Cc1ccccc1)NC(=O)c1cccnc1)c1cccnc1` [Compound 23], for which the inhibition constant (Ki) in experiment [1] (Table II, read-out: Ki) was 400 nM. As to `O=C(N[C@@H](Cc1ccccc1)[C@@H](O)[C@H](O)[C@H](Cc1ccccc1)NC(=O)c1ccccc1)c1ccccc1` [Compound 6], the inhibition at 10 µM in experiment [1] (read-out: % inhib) was 55%. In the case of `O=C(N[C@@H](Cc1ccccc1)[C@@H](O)[C@H](O)[C@H](Cc1ccccc1)NC(=O)c1cccc(O)c1)c1cccc(O)c1` [Compound 8], the Ki in experiment [1] (Table II, read-out: Ki) is 79 nM. For `O=C(N[C@@H](Cc1ccccc1)[C@H](O)[C@H](O)[C@H](Cc1ccccc1)NC(=O)c1cc(O)c2ccccc2n1)c1cc(O)c2ccccc2n1` [Compound 21], in experiment [1], the “inhibition of HIV PR (in words)” value is given as “diminished binding”. Besides, the inhibition at 10 µM in experiment [1] (read-out: % inhib) is 31%. As to `O=C(Cc1ccccc1)N[C@@H](Cc1ccccc1)[C@H](O)[C@H](O)[C@H](Cc1ccccc1)NC(=O)Cc1ccccc1` [Compound 5], the “inhibition of HIV PR (in words)” value in experiment [1] was “weak inhibitor of HIV PR”. For the same molecule, the inhibition at 10 µM in experiment [1] (read-out: % inhib) was 38%. `Nc1ccc(C(=O)N[C@@H](Cc2ccccc2)[C@@H](O)[C@@H](O)[C@H](Cc2ccccc2)NC(=O)c2ccccc2NC(=O)OCc2ccccn2)cc1` [DN-6B]: in experiment [1] (setting [5]), the Ki worked out at 6.6 nM.

With `Cc1cc(O)cc(C(=O)N[C@@H](Cc2ccccc2)[C@H](O)[C@H](O)[C@H](Cc2ccccc2)NC(=O)c2cc(C)cc(O)c2)c1` [Compound 14], the Ki in experiment [1] (Table II, read-out: Ki) was 1000 nM. As for `O=C(N[C@@H](Cc1ccccc1)[C@H](O)[C@H](O)[C@H](Cc1ccccc1)NC(=O)c1cccc(OCCOc2ccccc2)c1)c1cccc(OCCOc2ccccc2)c1` [Compound 19], the inhibition at 10 µM in experiment [1] (read-out: % inhib) was 9%. With `O=C(Nc1ccccc1C(=O)N[C@@H](Cc1ccccc1)[C@H](O)[C@H](O)[C@H](Cc1ccccc1)NC(=O)c1cccc(O)c1)OCc1ccccn1` [DN-4], the Ki in experiment [1] (setting [5]) came to 1.7 nM. In the case of `O=C(N[C@@H](Cc1ccccc1)[C@H](O)[C@H](O)[C@H](Cc1ccccc1)NC(=O)c1cc(=O)c2ccccc2o1)c1cc(=O)c2ccccc2o1` [Compound 20], the “inhibition of HIV PR (in words)” value in experiment [1] was “diminished binding”. Moreover, in experiment [1] (read-out: % inhib), the inhibition at 10 µM was 67%. For the molecule `O=C(Nc1ncccc1C(=O)N[C@@H](Cc1ccccc1)[C@H](O)[C@H](O)[C@H](Cc1ccccc1)NC(=O)c1cccnc1NC(=O)OCc1ccccc1)OCc1ccccc1` [Compound 30], in experiment [1] (Table IV, read-out: Ki), the inhibition constant (Ki) amounted to 3 nM.

In the case of `O=C(N[C@@H](Cc1ccccc1)[C@@H](O)[C@H](O)[C@H](Cc1ccccc1)NC(=O)c1ccccc1O)c1ccccc1O` [Compound 11], the “inhibition of HIV PR (in words)” value in experiment [1] is “dramatic loss in enzyme inhibitory potency”. Moreover, the inhibition at 10 µM in experiment [1] (at 10 μM, read-out: % inhibition) is 66%; in experiment [1] (read-out: % inhib), 66%.

With `Nc1cccc(C(=O)N[C@@H](Cc2ccccc2)C[C@H](O)[C@H](Cc2ccccc2)NC(=O)c2cccc(N)c2)c1` [Compound 25], in experiment [1], the “inhibition of HIV PR (in words)” value is on record as “did not improve the inhibitory potencies”. Moreover, the inhibitory constant (Ki) in experiment [1] (Table II, read-out: Ki) stood at 6 nM. In the case of `O=C(Nc1ccccc1C(=O)N[C@@H](Cc1ccccc1)C[C@H](O)[C@H](Cc1ccccc1)NC(=O)c1ccccc1NC(=O)OCc1ccccc1)OCc1ccccc1` [Compound 35], the Ki in experiment [1] (Table IV, read-out: Ki) came out at 1.2 nM.

Broadly, the Ki is the equilibrium dissociation constant of an inhibitor or competing ligand from its target.
